# From patent publication US9623028B2, “Methods of treating a cancer using substituted pyrrolopyrimidine compounds, compositions thereof” (Signal Pharmaceuticals, LLC, priority 2014, dated 2017)
# Like-named read-outs stand apart in the source and are kept apart here.
# Legend:
# [1] = molecular target: CLK2 (Homo sapiens (Human), UniProt P49760); test: biochemical; conditions: read-out: CLK2 (% Inh.), % inhibition at 3 μM
# [2] = test system: non small cell lung cancer (NSCLC) cell lines; test: cells
# [3] = test system: breast cancer cell lines; test: cells; conditions: for IC50: read-out: Growth Inhibition IC50; for GI50: read-out: Growth inhibition GI50
# [4] = molecular target: CLK1 (Homo sapiens (Human), UniProt P49759); test: biochemical; conditions: read-out: CLK1 (% Inh.), % inhibition at 3 μM
# Chain of CLK1 (P49759 whole entry): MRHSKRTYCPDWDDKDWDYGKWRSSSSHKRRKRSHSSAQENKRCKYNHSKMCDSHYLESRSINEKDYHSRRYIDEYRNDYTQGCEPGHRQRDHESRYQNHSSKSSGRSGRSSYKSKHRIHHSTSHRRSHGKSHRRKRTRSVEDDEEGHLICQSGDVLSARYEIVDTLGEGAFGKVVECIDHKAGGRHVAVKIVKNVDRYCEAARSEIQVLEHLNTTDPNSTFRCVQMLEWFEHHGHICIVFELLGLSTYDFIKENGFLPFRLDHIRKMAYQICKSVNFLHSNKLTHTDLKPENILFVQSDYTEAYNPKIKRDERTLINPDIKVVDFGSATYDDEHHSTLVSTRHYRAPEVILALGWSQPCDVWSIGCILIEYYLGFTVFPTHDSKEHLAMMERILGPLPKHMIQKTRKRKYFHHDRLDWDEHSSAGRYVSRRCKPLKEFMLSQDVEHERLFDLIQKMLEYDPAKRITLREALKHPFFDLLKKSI
# [5] = Homo sapiens, MDA-MB-175-VII, 96 h
# Chain of CLK2 (P49760 whole entry): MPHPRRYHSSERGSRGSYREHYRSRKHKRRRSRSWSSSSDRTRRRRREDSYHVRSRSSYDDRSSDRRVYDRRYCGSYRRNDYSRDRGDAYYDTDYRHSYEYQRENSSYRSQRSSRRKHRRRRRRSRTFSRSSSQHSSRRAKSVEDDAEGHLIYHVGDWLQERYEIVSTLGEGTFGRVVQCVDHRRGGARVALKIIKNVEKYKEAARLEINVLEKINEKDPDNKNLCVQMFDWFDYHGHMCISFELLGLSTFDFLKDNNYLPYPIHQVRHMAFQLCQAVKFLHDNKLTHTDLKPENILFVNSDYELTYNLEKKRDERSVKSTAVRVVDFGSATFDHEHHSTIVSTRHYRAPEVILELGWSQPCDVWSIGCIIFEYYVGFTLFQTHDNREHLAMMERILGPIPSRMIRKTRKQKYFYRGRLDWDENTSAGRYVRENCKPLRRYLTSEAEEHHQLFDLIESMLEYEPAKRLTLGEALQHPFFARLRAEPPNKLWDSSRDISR
smiles,measurement,setting,value
"CNC(=O)c1ccc(Nc2nc(OC3CCCC3)c3c(-c4ccc(O)cc4)c[nH]c3n2)c(OC)c1 [Compound 3, 4-((4-(cyclopentyloxy)-5-(4-hydroxyphenyl)-7H-pyrrolo[2,3-d]pyrimidin-2-yl)amino)-3-methoxy-N-methylbenzamide]",inhibition at 3 µM,[1],104%
same,IC50,"[2]; Homo sapiens, A549, 72 h, read-out: Average IC50 (μM)",0.05 µM
same,IC50,"[2]; Homo sapiens, HOP-62, 72 h, read-out: Average IC50 (μM)",0.05 µM
same,IC50,"[2]; Homo sapiens, HOP-92, 72 h, read-out: Average IC50 (μM)",1.27 µM
same,IC50,"[2]; Homo sapiens, NCI-H441, 72 h, read-out: Average IC50 (μM)",2.1 µM
same,IC50,"[2]; Homo sapiens, NCI-H460, 72 h, read-out: Average IC50 (μM)",0.04 µM
same,IC50,"[2]; Homo sapiens, NCI-H1299, 72 h, read-out: Average IC50 (μM)",0.36 µM
same,IC50,"[2]; Homo sapiens, NCI-H1437, 72 h, read-out: Average IC50 (μM)",0.39 µM
same,IC50,"[2]; Homo sapiens, NCI-H1563, 72 h, read-out: Average IC50 (μM)",1.77 µM
same,IC50,"[2]; Homo sapiens, NCI-H1650, 72 h, read-out: Average IC50 (μM)",0.62 µM
same,IC50,"[2]; Homo sapiens, NCI-H1734, 72 h, read-out: Average IC50 (μM)",0.91 µM
same,IC50,"[2]; Homo sapiens, NCI-H1838, 72 h, read-out: Average IC50 (μM)",16.1 µM
same,IC50,"[2]; Homo sapiens, NCI-H2228, 72 h, read-out: Average IC50 (μM)",1.58 µM
same,IC50,"[2]; Homo sapiens, NCI-H2291, 72 h, read-out: Average IC50 (μM)",16.3 µM
same,IC50,"[2]; Homo sapiens, SK-LU-1, 72 h, read-out: Average IC50 (μM)",0.83 µM
same,IC50,"[2]; Homo sapiens, SW1573, 72 h, read-out: Average IC50 (μM)",0.96 µM
same,IC50,[2]; read-out: growth inhibition IC50 values,≤ 2 µM
same,IC50,"[3]; EFM-192A, 96 h",10 µM
same,GI50,"[3]; EFM-192A, 96 h",10 µM
same,IC50,"[3]; HCC202, 96 h",16 µM
same,GI50,"[3]; HCC202, 96 h",15 µM
same,GI50,"[3]; HCC1500, 96 h",0.053 µM
same,IC50,"[3]; Homo sapiens, AU565, 96 h",1.1 µM
same,GI50,"[3]; Homo sapiens, AU565, 96 h",0.426 µM
same,IC50,"[3]; Homo sapiens, BT-20, 96 h",0.608 µM
same,GI50,"[3]; Homo sapiens, BT-20, 96 h",0.289 µM
same,IC50,"[3]; Homo sapiens, BT-474, 96 h",16.3 µM
same,GI50,"[3]; Homo sapiens, BT-474, 96 h",6.02 µM
same,IC50,"[3]; Homo sapiens, BT-483, 96 h",10 µM
same,GI50,"[3]; Homo sapiens, BT-483, 96 h",0.704 µM
same,IC50,"[3]; Homo sapiens, BT-549, 96 h",0.18 µM
same,GI50,"[3]; Homo sapiens, BT-549, 96 h",0.085 µM
same,IC50,"[3]; Homo sapiens, CAL-51, 96 h",0.009 µM
same,GI50,"[3]; Homo sapiens, CAL-51, 96 h",0.008 µM
same,IC50,"[3]; Homo sapiens, CAL-85-1, 96 h",0.076 µM
same,GI50,"[3]; Homo sapiens, CAL-85-1, 96 h",0.025 µM
same,IC50,"[3]; Homo sapiens, CAL-120, 96 h",10 µM
same,GI50,"[3]; Homo sapiens, CAL-120, 96 h",10 µM
same,IC50,"[3]; Homo sapiens, CAMA-1, 96 h",10.7 µM
same,GI50,"[3]; Homo sapiens, CAMA-1, 96 h",4.9 µM
same,IC50,"[3]; Homo sapiens, DU-4475, 96 h",0.56 µM
same,GI50,"[3]; Homo sapiens, DU-4475, 96 h",0.082 µM
same,IC50,"[3]; Homo sapiens, EFM-19, 96 h",0.73 µM
same,GI50,"[3]; Homo sapiens, EFM-19, 96 h",0.067 µM
same,IC50,"[3]; Homo sapiens, HCC38, 96 h",0.047 µM
same,GI50,"[3]; Homo sapiens, HCC38, 96 h",0.017 µM
same,IC50,"[3]; Homo sapiens, HCC70, 96 h",1.95 µM
same,GI50,"[3]; Homo sapiens, HCC70, 96 h",0.442 µM
same,IC50,"[3]; Homo sapiens, HCC1143, 96 h",17.5 µM
same,GI50,"[3]; Homo sapiens, HCC1143, 96 h",0.286 µM
same,IC50,"[3]; Homo sapiens, HCC1187, 96 h",0.881 µM
same,GI50,"[3]; Homo sapiens, HCC1187, 96 h",0.47 µM
same,IC50,"[3]; Homo sapiens, HCC1428, 96 h",4.97 µM
same,GI50,"[3]; Homo sapiens, HCC1428, 96 h",1.09 µM
same,IC50,"[3]; Homo sapiens, HCC1569, 96 h",5.43 µM
same,GI50,"[3]; Homo sapiens, HCC1569, 96 h",0.073 µM
same,IC50,"[3]; Homo sapiens, HCC1937, 96 h",10 µM
same,GI50,"[3]; Homo sapiens, HCC1937, 96 h",7.46 µM
same,IC50,"[3]; Homo sapiens, HCC1954, 96 h",0.482 µM
same,GI50,"[3]; Homo sapiens, HCC1954, 96 h",0.131 µM
same,IC50,"[3]; Homo sapiens, HCC2157, 96 h",0.12 µM
same,GI50,"[3]; Homo sapiens, HCC2157, 96 h",0.024 µM
same,IC50,"[3]; Homo sapiens, Hs-578T, 96 h",0.183 µM
same,GI50,"[3]; Homo sapiens, Hs-578T, 96 h",0.104 µM
same,IC50,"[3]; Homo sapiens, MCF7, 96 h",0.17 µM
same,GI50,"[3]; Homo sapiens, MCF7, 96 h",0.124 µM
same,IC50,"[3]; Homo sapiens, MCF-10A, 96 h",17.4 µM
same,GI50,"[3]; Homo sapiens, MCF-10A, 96 h",0.426 µM
same,IC50,"[3]; Homo sapiens, MCF-12A, 96 h",3.15 µM
same,GI50,"[3]; Homo sapiens, MCF-12A, 96 h",0.486 µM
same,GI50,"[3]; Homo sapiens, MDA-MB-134-VI, 96 h",0.874 µM
same,IC50,"[3]; Homo sapiens, MDA-MB-157, 96 h",0.695 µM
same,GI50,"[3]; Homo sapiens, MDA-MB-157, 96 h",0.225 µM
same,IC50,[3]; [5],8.5 µM
same,GI50,[3]; [5],0.4 µM
same,IC50,"[3]; Homo sapiens, MDA-MB-231, 96 h",0.038 µM
same,GI50,"[3]; Homo sapiens, MDA-MB-231, 96 h",0.022 µM
same,IC50,"[3]; Homo sapiens, MDA-MB-361, 96 h",18.8 µM
same,GI50,"[3]; Homo sapiens, MDA-MB-361, 96 h",5.48 µM
same,IC50,"[3]; Homo sapiens, MDA-MB-415, 96 h",13.5 µM
same,GI50,"[3]; Homo sapiens, MDA-MB-415, 96 h",11.7 µM
same,IC50,"[3]; Homo sapiens, MDA-MB-436, 96 h",2.1 µM
same,GI50,"[3]; Homo sapiens, MDA-MB-436, 96 h",1.38 µM
same,IC50,"[3]; Homo sapiens, MDA-MB-453, 96 h",2.79 µM
same,GI50,"[3]; Homo sapiens, MDA-MB-453, 96 h",0.799 µM
same,IC50,"[3]; Homo sapiens, MDA-MB-468, 96 h",0.032 µM
same,GI50,"[3]; Homo sapiens, MDA-MB-468, 96 h",0.027 µM
same,IC50,"[3]; Homo sapiens, SK-BR-3, 96 h",3.69 µM
same,GI50,"[3]; Homo sapiens, SK-BR-3, 96 h",1.18 µM
same,IC50,"[3]; Homo sapiens, T47D, 96 h",0.418 µM
same,GI50,"[3]; Homo sapiens, T47D, 96 h",0.162 µM
same,IC50,"[3]; Homo sapiens, UACC-812, 96 h",1.79 µM
same,GI50,"[3]; Homo sapiens, UACC-812, 96 h",0.842 µM
same,IC50,"[3]; Homo sapiens, ZR-75-1, 96 h",6.39 µM
same,GI50,"[3]; Homo sapiens, ZR-75-1, 96 h",1.14 µM
same,IC50,"[3]; Homo sapiens, ZR-75-30, 96 h",30 µM
same,GI50,"[3]; Homo sapiens, ZR-75-30, 96 h",11.6 µM
same,IC50,"[3]; KPL-1, 96 h",0.693 µM
same,GI50,"[3]; KPL-1, 96 h",0.245 µM
same,inhibition at 3 µM,[4],91%
